Data on two compounds can be found in patent publication US8980226B2, “Aerosolized fosfomycin/aminoglycoside combination for the treatment of bacterial respiratory infections” (Gilead Sciences, Inc., priority 2004, dated 2015).

Each structure is given as a SMILES string. Converted amounts (≈) assume the structure as drawn.

In experiment [1] the test system is 100 P. aeruginosa strains isolated from lung sputum samples from cystic fibrosis patients. Nature of the experiment: MIC50 and MIC90 for 100 P. aeruginosa strains, without mucin. The class given is cell-based. Conditions: Pseudomonas aeruginosa. On the procedure: (§1) The MICs of fosfomycin alone, tobramycin alone, or combinations of fosfomycin plus tobramycin were determined by the agar-plate dilution method according to NCCLS guidelines (NCCLS, 2003). Bacterial strains were streaked onto Trypic Soy Agar plates (PML Microbiologicals, Wilsonville, Oreg.) containing 5% defibrinated sheep blood (hereafter referred to as blood agar plates) and incubated overnight at 35° C. Two to three bacterial colonies from the overnight cultures were inoculated into 3 mL of sterile normal saline, vortexed briefly, and adjusted to a 0.5 McFarland standard (NCCLS, 2003). The bacterial suspension was diluted 1:40 in sterile normal saline and served as the inoculum. Mueller-Hinton agar plates (hereafter referred to as MHA) were prepared by combining 16 g of agarose (Becton-Dickinson, Sparks, Md.), 22 g of Mueller-Hinton broth powder (Becton-Dickinson, Sparks, Md.), and adjusted to 1 L with distilled water. The agar was sterilized by autoclaving, cooled to 55° C., and supplemented with 25 μg/mL of glucose-6-phosphate (Sigma-Aldrich, St. Louis, Mo.). Twenty-five mL of cooled agar was aliquoted into 50 mL conical tubes and supplemented with appropriate concentrations of antibiotic to achieve concentrations ranging from 0.06 μg/mL to 512 μg/mL. After gently mixing the agar and antibiotic, the suspension was poured into sterile 100 mm petri dishes and allowed to solidify at room temperature. The antibiotic agar plates were inoculated with approximately 2×10^4 CFU/spot with a 48-point inoculator (Sigma-Aldrich, St. Louis, Mo.). The MIC was defined as the lowest concentration of antibiotic (s) that prevented visible growth after incubation for 18-20 hours at 35° C. The efficacy of a particular antibiotic or antibiotic combination on large populations of P. aeruginosa was determined by calculating the MIC50 and MIC90 values. The MIC50 value was defined as the concentration of antibiotic(s) which inhibited 50% of the P. aeruginosa strains. The MIC90 value was defined as the concentration of antibiotic(s) which inhibited 90% of the P. aeruginosa strains (Wiedemann and Grimm, 1996).

The test system is the same in experiment [2]. In words: MIC50 and MIC90 for 100 P. aeruginosa strains, CF mucin binding model (+mucin). Type of experiment: cell-based. Conditions: Pseudomonas aeruginosa; for MIC90: read-out: MIC90 Mucin (+). As for the experimental part:
as §1
The MICs of fosfomycin alone, tobramycin alone, or combinations of fosfomycin plus tobramycin were determined for P. aeruginosa strains in the presence of porcine gastric mucin to evaluate the effect of mucin and protein binding on antibiotic activity. Methodologies were identical to that described in Example 5, Method A, with the exception that 2% (weight/volume) porcine gastric mucin (Sigma Chemical Co., St. Louis, Mo.) was added to the MHA prior to autoclaving.

The test system of experiment [3] is susceptible P. aeruginosa. As to conditions: typical values, literature; cited from earlier work.
The next experiment deals with P. aeruginosa ATCC 27853. Nature of the experiment: MIC for P. aeruginosa ATCC 27853. Conditions: Pseudomonas aeruginosa, ATCC27853. The class given is cell-based. As for the experimental part: E. coli ATCC 25922 and S. aureus ATCC 29213 were used as quality control stains. Bacterial strains were streaked onto blood agar plates, and incubated at 35° C. for 18 hours. Two to three bacterial colonies from the overnight cultures were inoculated into 3 mL of sterile normal saline, vortexed briefly, and adjusted to a 0.5 McFarland standard (NCCLS, 2003). The bacterial suspension was diluted 1:100 in cation-adjusted Mueller-Hinton broth (hereafter referred to as CAMHB). […] The MIC was defined as the lowest concentration of antibiotic (s) that prevented visible growth after incubation at 35° C. for 18-24 hours. […] Two to three bacterial colonies were inoculated into 10 mL CAMHB and incubated at 35° C. in a shaking water bath (250 rpm) for 18-24 hours. […] The resulting culture was adjusted to a 0.5 McFarland standard (NCCLS, 2003). […] Ten milliliter aliquots were then pipeted into 50 mL conical tubes. […] The killing activity of fosfomycin plus amikacin, arbekacin, dibikacin, gentamicin, kanamycin, […], neomycin, streptomycin, or tobramycin were also compared to the killing activity of their individual components alone. […] A no drug control was run in each experiment. Cultures were incubated with antibiotic at 35° C. in a shaking (250 rpm) water bath for 24 hours. […] Culture plates were incubated at 35° C. for 18-24 hours and the number of colonies enumerated manually. […]

The mark [4] stands for this setting: 100 P. aeruginosa strains, 2% porcine gastric mucin.

Broadly, the MIC50 is an inhibitory concentration at the 50% level, which refers to growth in some studies and to a panel of isolates in others. The MIC90 is an inhibitory concentration at the 90% level, which refers to growth in some studies and to a panel of isolates in others. On to `NC[C@H]1O[C@H](O[C@H]2[C@H](O)[C@@H](O[C@H]3O[C@H](CO)[C@@H](O)[C@H](N)[C@H]3O)[C@H](N)C[C@@H]2N)[C@H](N)C[C@@H]1O` [Tobramycin], for which, in experiment [1], the MIC50 turned out to be 2 µg/mL and the MIC90 was 16 µg/mL. In experiment [2] (setting [4]), the MIC50 is 16 µg/mL and the MIC90 was determined as 64 µg/mL. For the same compound, the “MICs of susceptible P. aeruginosa” value in experiment [3] is “less than 2 μg/mL”.
Usually MIC stands for the lowest concentration that inhibits growth of the organism. Low readings indicate inhibition by little substance, high ones a need for much substance. On to `C[C@@H]1O[C@@H]1P(=O)(O)O` [Fosfomycin], for which the MIC50 in experiment [1] and in experiment [2] (setting [4]) was 64 µg/mL each time. Further, the MIC90 in experiment [1] is at least 512 µg/mL; in experiment [2], 128 µg/mL. The compound further showed a minimum inhibitory concentration (MIC) against P. aeruginosa ATCC 27853 of 4 µg/mL (≈ 29 µM).
